Results reported in patent US20220324898A1, “PROSTATE SPECIFIC MEMBRANE ANTIGEN (PSMA) LIGANDS COMPRISING AN AMYLASE CLEAVABLE LINKER” (Deutsches Krebsforschungszentrum, priority 2019, published 2022).

What was measured:
[1] = target: T1, PSMA (Homo sapiens, UniProt Q04609); experiment: Competitive cell binding against 68Ga-labeled PSMA-10 radioligand; details: non-labeled compound vs 0.8 nM 68Ga-PSMA-10; first preliminary experiments; read-out: IC50 (50% inhibitory concentration), competitive cell binding
T1 construct: endogenous in cells
Experimental: For the determination of competitive cell binding the cells (10^5 per well) were incubated with a 0.8 nM solution of ^68Ga-labeled radioligand [Glu-urea-Lys(Ahx)]2-HBED-CC (PSMA-10, precursor ordered from ABX, Radeberg, Germany) in the presence of 12 different concentrations of analyte (non-labeled compounds, 0-5000 nM, 100 μL/well). After incubation, the mixture was removed and the wells were washed 3 times with PBS using a multiscreen vacuum manifold (Millipore, Billerica, Mass.). Cell-bound radioactivity was measured using a gamma counter (Packard Cobra II, GMI, Minn., USA). The 50% inhibitory concentration (IC50) values were calculated by fitting the data using a nonlinear regression algorithm (GraphPad Software).

[2] = system: LNCaP cells; experiment: Internalization and cell surface binding of 177Lu-labeled PSMA ligands; type: cell-based; details: 30 nM 177Lu-labeled ligand, 45 min, 37° C., blocking with 2-PMPA
Experimental: 10^5 LNCaP cells were seeded in poly-L-lysine coated 24-well cell culture plates. 24 h later, wells were washed and the cells incubated with a 30 nM solution of ^177Lu radiolabeled PSMA-ligand (PSMA-617 or PSMA-MT) in 250 μL medium, for 45 min at 37° C. In the blocking experiments, incubation was performed in the presence of excess of 2-PMPA to assess competition for PSMA. Following incubation, PSMA-ligand containing medium was removed by washing 3 times with 1 mL of ice-cold PBS. Cells were subsequently incubated twice with 0.5 mL glycine-HCl in PBS (50 mM, pH=2.8) for 5 min to extract the cell membrane associated fraction. The cells were then washed with 1 mL of ice-cold PBS, and lysed with 0.5 mL 0.3 M NaOH. The membrane bound and lysed (internalized) fractions were assessed for radioactivity levels using a gamma counter (Packard Cobra II, GMI, Minn., USA). Cell uptake was calculated as percent of the initially added radioactivity detected in 10^5 cells [% IA/10^5 cells].

[3] = Organ distribution of 177Lu-labeled PSMA ligands in LNCaP tumor-bearing mice; type: in vivo, BALB/c nu/nu mice; details: 60 pmol via tail vein, mean, n=3; for Organ distribution: Tumor: LNCaP tumor
Experimental: 5×10^6 LNCaP cells were subcutaneously inoculated into the right flank of male 6-week-old BALB/c nu/nu mice (Charles River Laboratories). Tumors were grown for ˜3 weeks, to ˜200 mm^3. 60 pmoles of ^177Lu labelled PSMA-ligands were dissolved in 100 μL 0.9% NaCl and injected per mouse. The solution was injected via the tail vein, followed by sacrifice at various time points. Organs of interest (blood, heart, lung, spleen, liver, kidney, muscle, small intestine, brain, tumor, and femur) were dissected, blotted dry, and weighed. The radioactivity was measured using a gamma counter and calculated as % ID/g, and corrected for ^177Lu decay.
The results are given in the following tables (mean+standard deviation; per time point n=3 animals) (see also FIG. 4): […]

[4] = target: T2, α-amylase (isolated from the human salivary gland) (Homo sapiens, UniProt P0DUB6); experiment: Cleavability of the linker by α-amylase, monitored by analytical HPLC; type: in vitro ADME; details: in vitro, after 177Lu labeling according to example 1A, analytical HPLC at different times
T2 construct: incubated with α-amylase (isolated from the human salivary gland, Sigma-Aldrich); purchased Sigma-Aldrich; host or cells: human salivary gland (natural source)
T2 sequence (P0DUB6 16-511): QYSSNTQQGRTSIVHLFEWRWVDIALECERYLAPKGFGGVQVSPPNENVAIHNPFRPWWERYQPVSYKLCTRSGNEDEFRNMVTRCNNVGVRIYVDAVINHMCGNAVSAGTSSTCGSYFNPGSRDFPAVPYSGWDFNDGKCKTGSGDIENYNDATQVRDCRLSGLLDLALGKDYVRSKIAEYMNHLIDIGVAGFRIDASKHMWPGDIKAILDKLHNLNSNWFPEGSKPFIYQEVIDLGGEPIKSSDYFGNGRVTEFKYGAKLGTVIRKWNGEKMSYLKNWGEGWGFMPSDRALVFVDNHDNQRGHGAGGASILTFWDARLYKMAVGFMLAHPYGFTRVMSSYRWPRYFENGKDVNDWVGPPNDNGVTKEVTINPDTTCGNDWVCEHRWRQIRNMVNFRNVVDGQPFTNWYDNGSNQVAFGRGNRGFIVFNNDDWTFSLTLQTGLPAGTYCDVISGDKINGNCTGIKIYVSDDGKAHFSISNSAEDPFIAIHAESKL
Experimental: FIG. 1. The time-dependent cleavability of the compound PSMA-MT by α-amylase is shown. ^177Lu-PSMA-MT was incubated with an α-amylase (isolated from the human salivary gland) and enzymatic cleavage was monitored at different times by analytical HPLC.
The radiolabelled compound was incubated with α-amylase (isolated from the human salivary gland, Sigma-Aldrich) according to instructions of the manufacturer and enzymatic cleavage was monitored at different times by analytical HPLC (see FIG. 1).

[5] = target: T3, α-Amylase (Homo sapiens, UniProt P0DUB6); experiment: α-Amylase digestion of PSMA-MT, analysed by RP-HPLC and MALDI-TOF; type: in vitro ADME
T3 sequence (P0DUB6 16-511): T2 sequence (P0DUB6 16-511)
Experimental: 10 μl of a solution of PSMA-MT in ultrapure water with a concentration of 1 mM were analyzed by analytic RP-HPLC and MALDI-TOF before the digestion. For digestion 10 μl of α-Amylase (1 U/μl in H2O ) were added to 10 μl of a solution of PSMA-MT in ultrapure water with a concentration of 1 mM and incubated at RT for 1 h. The solution was afterwards analyzed with analytic RP-HPLC and MALDI-TOF to evaluate the reaction.
To investigate the exact digest position of PSMA-MT the different fragments found in the MALDI-TOF after the digest were compared. Two main peaks occurred at 902 g/mol and at 989 g/mol. […] Fragments corresponding to cleavage at cleavage site B could not be detected in the MALDI-TOF.

[6] = system: prostate cancer; details: cited from earlier work

T1 sequence (Q04609 whole entry): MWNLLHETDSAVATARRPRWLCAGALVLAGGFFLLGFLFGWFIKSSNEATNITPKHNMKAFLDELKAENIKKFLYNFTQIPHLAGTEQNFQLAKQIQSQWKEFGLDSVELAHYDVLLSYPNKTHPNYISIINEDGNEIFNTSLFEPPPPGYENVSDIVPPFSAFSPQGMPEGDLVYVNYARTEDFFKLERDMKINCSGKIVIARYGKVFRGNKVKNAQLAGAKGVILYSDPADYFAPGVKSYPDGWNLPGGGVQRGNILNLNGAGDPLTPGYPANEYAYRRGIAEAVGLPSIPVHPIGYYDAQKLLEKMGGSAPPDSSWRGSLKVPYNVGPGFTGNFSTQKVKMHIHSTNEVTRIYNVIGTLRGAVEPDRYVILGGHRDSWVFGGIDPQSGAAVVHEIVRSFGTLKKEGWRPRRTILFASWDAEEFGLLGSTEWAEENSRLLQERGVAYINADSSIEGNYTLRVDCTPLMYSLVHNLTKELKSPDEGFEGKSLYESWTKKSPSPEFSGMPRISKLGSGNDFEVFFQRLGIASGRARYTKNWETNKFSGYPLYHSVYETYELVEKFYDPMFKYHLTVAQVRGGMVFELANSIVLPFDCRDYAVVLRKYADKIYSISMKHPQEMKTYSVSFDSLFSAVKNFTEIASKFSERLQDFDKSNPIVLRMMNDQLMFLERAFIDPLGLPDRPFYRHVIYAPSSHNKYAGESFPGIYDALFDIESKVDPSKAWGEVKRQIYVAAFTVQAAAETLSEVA

Row | Structure (SMILES) | IC50 [1] | Specifically cell surface bound (cell uptake), mean [2] | Specifically internalized (cell uptake), mean [2] | Organ distribution: Blood ([3]; 1 h) | Organ distribution: Brain ([3]; 1 h) | Organ distribution: Heart ([3]; 1 h) | Organ distribution: Kidney (first Kidney column) ([3]; 1 h) | Organ distribution: Kidney (second Kidney column) ([3]; 1 h) | Organ distribution: Liver ([3]; 1 h) | Organ distribution: Lung ([3]; 1 h) | Organ distribution: Muscle ([3]; 1 h) | Organ distribution: Small Intestine ([3]; 1 h) | Organ distribution: Spleen ([3]; 1 h) | Organ distribution: Tail ([3]; 1 h) | Organ distribution: Tumor ([3]; 1 h) | Organ distribution: Blood ([3]; 4 h) | Organ distribution: Brain ([3]; 4 h) | Organ distribution: Heart ([3]; 4 h) | Organ distribution: Kidney (first Kidney column) ([3]; 4 h) | Organ distribution: Kidney (second Kidney column) ([3]; 4 h) | also measured
1 | O=C(O)CCC(NC(=O)NC(CCCCNC(=O)C(Cc1ccc2ccccc2c1)NC(=O)C1CCC(CNC(=O)CN2CCN(CC(=O)O)CCN(CC(=O)O)CCN(CC(=O)O)CC2)CC1)C(=O)O)C(=O)O (centres unmarked) [PSMA-617, 2-[3-(1-Carboxy-5-{3-naphthalen-2-yl-2-[(4-{[2-(4,7,10-tris-carboxymethyl-1,4,7,10-tetraaza-cyclododec-1-yl)-acetylamino]-methyl}-cyclohexanecarbonyl) -amino]-propionylamino}-pentyl)-ureido]-pentanedioic acid, reference compound] | ~20 nM | – | – | – | – | – | – | – | – | – | – | – | – | – | – | – | – | – | – | – | –
2 | O=C([O-])CN1CCN(CC(=O)[O-])CCN(CC(=O)NCC2CCC(C(=O)N[C@@H](Cc3ccc4ccccc4c3)C(=O)NCCCC[C@H](NC(=O)N[C@@H](CCC(=O)O)C(=O)O)C(=O)O)CC2)CCN(CC(=O)[O-])CC1.[177Lu+3] (some centres unmarked) [177Lu-PSMA-617, reference compound] | – | 4,09228993 % IA/10^5 cells | 2,63598315 % IA/10^5 cells | 0.31 % ID/g | 0.02 % ID/g | 0.17 % ID/g | 143.55 % ID/g | 146.77 % ID/g | 4.73 % ID/g | 0.61 % ID/g | 0.07 % ID/g | 0.18 % ID/g | 5.86 % ID/g | 3.46 % ID/g | 19.20 % ID/g | 0.03 % ID/g | 0.01 % ID/g | 0.03 % ID/g | 5.52 % ID/g | 5.50 % ID/g | Organ distribution: Liver ([3]; 4 h): 1.57 % ID/g; Organ distribution: Lung ([3]; 4 h): 0.08 % ID/g; Organ distribution: Muscle ([3]; 4 h): 0.01 % ID/g; Organ distribution: Small Intestine ([3]; 4 h): 0.04 % ID/g; Organ distribution: Spleen ([3]; 4 h): 1.20 % ID/g; Organ distribution: Tail ([3]; 4 h): 0.78 % ID/g; Organ distribution: Tumor ([3]; 4 h): 14.77 % ID/g
3 | O=C(O)CCC(NC(=O)NC(CCCCNC(=O)C(Cc1ccc2ccccc2c1)NC(=O)C1CCC(CNC(=O)CCc2ccc(OC3OC(CO)C(OC4OC(CO)C(OC5OC6COC(c7cccc(N8CCN(C(=O)CN9CCN(CC(=O)O)CCN(CC(=O)O)CCN(CC(=O)O)CC9)CC8)c7)OC6C(O)C5O)C(O)C4O)C(O)C3O)cc2)CC1)C(=O)O)C(=O)O (centres unmarked) [PSMA-MT, 1-(4-(3-oxo-3-PSMA-propyl)phenyl)-4″,6″-(3-(4-DOTA-piperazine)benzylidene)maltotriose] | ~39 nM | – | – | – | – | – | – | – | – | – | – | – | – | – | – | – | – | – | – | – | Basic cleavability of the linker by α-amylases [4]: demonstrated; Turnover of PSMA-MT on digestion with α-Amylase (original mass peak disappeared) ([5]; 1 h at RT, 1 U/μl α-Amylase, 1 mM PSMA-MT, MALDI-TOF): complete turnover; Alpha-amylase cleavage site whose predicted fragments were found ([5]; MALDI-TOF after digest, fragments for cleavage site B could not be detected): cleavage site A
4 | O=C([O-])CN1CCN(CC(=O)[O-])CCN(CC(=O)N2CCN(c3cccc(C4OCC5OC(OC6C(CO)OC(OC7C(CO)OC(Oc8ccc(CCC(=O)NCC9CCC(C(=O)NC(Cc%10ccc%11ccccc%11c%10)C(=O)NCCCCC(NC(=O)NC(CCC(=O)O)C(=O)O)C(=O)O)CC9)cc8)C(O)C7O)C(O)C6O)C(O)C(O)C5O4)c3)CC2)CCN(CC(=O)[O-])CC1.[177Lu+3] (centres unmarked) [177Lu-PSMA-MT] | – | 4,86794251 % IA/10^5 cells | 2,14459836 % IA/10^5 cells | 0.35 % ID/g | 0.02 % ID/g | 0.16 % ID/g | 144.27 % ID/g | 142.04 % ID/g | 2.07 % ID/g | 0.56 % ID/g | 0.08 % ID/g | 0.15 % ID/g | 3.83 % ID/g | 4.61 % ID/g | 12.83 % ID/g | 0.04 % ID/g | 0.01 % ID/g | 0.04 % ID/g | 20.59 % ID/g | 19.45 % ID/g | Organ distribution: Liver ([3]; 4 h): 4.58 % ID/g; Organ distribution: Lung ([3]; 4 h): 0.10 % ID/g; Organ distribution: Muscle ([3]; 4 h): 0.02 % ID/g; Organ distribution: Small Intestine ([3]; 4 h): 0.04 % ID/g; Organ distribution: Spleen ([3]; 4 h): 3.94 % ID/g; Organ distribution: Tail ([3]; 4 h): 0.50 % ID/g; Organ distribution: Tumor ([3]; 4 h): 9.18 % ID/g
5 | O=C([O-])CC[C@H](NC(=O)N[C@@H](CCCCNC(=O)[C@H](Cc1ccc2ccccc2c1)NC(=O)C1CCC(CNC(=O)CN2CCN(CC(=O)[O-])CCN(CC(=O)[O-])CCN(CC(=O)[O-])CC2)CC1)C(=O)[O-])C(=O)[O-].[225Ac].[H+].[H+].[H+] (some centres unmarked) [225Ac-PSMA-617] | – | – | – | – | – | – | – | – | – | – | – | – | – | – | – | – | – | – | – | – | PSA value ([6]; both patients): below the detectability limit; Clinical response ([6]; two patients with extremely advanced and end-stage disease): complete remission
